These results are taken from US4381304A, “4,9-Dihydro-4,9-dioxo-1H-cyclohepta[b]pyridine derivatives” (Ayerst, McKenna & Harrison, Inc., priority 1981, dated 1983).

The target in data set [1] is T1, aldose reductase (Bos taurus, UniProt P16116).
T1 construct: preparation of the enzyme from bovine lens; from tissue; host or cells: bovine lens
The data set is described as follows: in vitro aldose reductase inhibition (modified Hayman and Kinoshita procedure). The format is biochemical, bovine (lens). The note with it: for inhibition at 10 µM: read-out: % Inhibition at Different Molar Concentrations (in vitro), 10^-5; for inhibition at 1 µM: 10^-6 molar, read-out: % Inhibition at Different Molar Concentrations (in vitro), 10^-6; for inhibition at 0.1 µM: 10^-7 molar, read-out: % Inhibition at Different Molar Concentrations (in vitro), 10^-7. The source says:
In the present case the procedure of Hayman and Kinoshita is modified in that the final chromatography step is omitted in the preparation of the enzyme from bovine lens.

Data set [2] concerns aldose reductase. Particulars: literature report; cited from earlier work.
The test system of data set [3] is diabetic complications such as diabetic cataracts, neuropathy, nephropathy and retinopathy. Particulars: literature report (U.S. Pat. No. 3,821,383); cited from earlier work.
A short description of data set [4]: stability of the salt in the presence of acid. The format is physicochemical. The protocol: A mixture of 3-{[N-(methoxycarbonylmethyl)-N-methylamino]carbonyl}-4,9-dihydro-4,9-dioxo-1H-cyclohepta[b]pyridine-1-acetic acid ethyl ester (2.36 g, described in example 6) and 2% aqueous sodium hydroxide (w/v, 25 ml) was stirred at 25° C. for 4 hr. Evaporation of the reaction mixture gave the title disodium salt. […] The salt had mp>250° C.; nmr (D2 O) δ3.0 (d, 3H), 4.0 (d, 2H), 4.7 (s, 2H), 6.8-8.3 (m, 5H); ir (Nujol*) 3400, 3150, 1610 cm^-1 (with inflections at 1625 and 1585 cm^-1); uv λ max (MeOH) 340 nm (ε7,390), 237 (13,000); Anal Calcd for C16 H12 N2 O7 Na2.3H2 O: C, 43.24% H, 4.08% […]; Found: C, 42.76% H, 3.57%, N, 7.18%.

The mark [5] stands for this setting: 10^-5 molar, enzyme from bovine lens.

Read-outs that look alike come from different tables or passages of the source.

In the case of `O=C(O)Cn1cc(C(=O)O)c(=O)c2cc(O)ccc(=O)c21` [Example 4 (R^1 COOH, R^2 6-OH), 3-carboxy-4,9-dihydro-6-hydroxy-4,9-dioxo-1H-cyclohepta[b]pyridine-1-acetic acid], on aldose reductase [1] (setting [5]), the inhibition at 10 µM was determined as 84%. Besides, at aldose reductase [1] (enzyme from bovine lens), the inhibition at 1 µM came out at 53% and the inhibition at 0.1 µM is 16%.
On the same counts, the results for `O=C(O)Cn1cc(C(=O)O)c(=O)c2ccccc(=O)c21` [Example 4 (R^1 COOH, R^2 H), 3-Carboxy-4,9-dihydro-4,9-dioxo-1H-cyclohepta[b]pyridine-1-acetic Acid] are 89%, 65% and 19%.
As for `O=C(O)CN1C(=O)c2cccc3cccc(c23)C1=O` [1,3-Dioxo-1H-benz[de]isoquinoline-2(3H)-acetic acid], the “aldose reductase inhibition (in words)” value with aldose reductase [2] was “effective inhibitor of aldose reductase”. In addition, in data set [3], the “usefulness for the treatment of diabetic complications (in words)” value is “useful for the treatment of diabetic complications such as diabetic cataracts, neuropathy, nephropathy and retinopathy”.
For `CN(CC(=O)[O-])C(=O)c1cn(CC(=O)[O-])c2c(=O)ccccc2c1=O.[Na+].[Na+]` [Disodium Salt], at aldose reductase [1], the inhibition at 10 µM was determined as 22%.
In the case of `O=C1NC(=O)[C@@]2(CCOc3ccc(F)cc32)N1` [sorbinil, (S)-6-Fluoro-2,3-dihydrospiro(4H-1-benzopyran-4,4'-imidazolidine)-2',5'-dione], in the data set with aldose reductase [2], the “aldose reductase inhibition (in words)” value is reported as “aldose reductase inhibiting properties”.
For `CN(CC(=O)[O-])C(=O)c1cn(CC(=O)[O-])c2c(=O)ccccc2c1=O.[Na+].[Na+]`, the “stability in the presence of acid” value in data set [4] is “decomposed in the presence of acid”.
As for `O=C(O)Cn1cc(C(=O)O)c(=O)c2cccc(Br)c(=O)c21` [Example 4 (R^1 COOH, R^2 8-Br), 8-bromo-3-carboxy-4,9-dihydro-4,9-dioxo-1H-cyclohepta[b]pyridine-1-acetic acid], at aldose reductase [1] (setting [5]), the inhibition at 10 µM was found to be 81%. For the same molecule, at aldose reductase [1] (enzyme from bovine lens), the inhibition at 1 µM came to 47% and the inhibition at 0.1 µM stood at 14%.
